Structures can show the parent of a compound that is named as a salt.
Columns and labels:
PDE III = target: T1, PDE III (Homo sapiens, UniProt Q14432); test: Type III PDE inhibition, hydrolysis of [3H]-cyclic AMP; assay type: biochemical; settings: for IC50: Type III PDE isolated from human platelets, 0.2 μM cyclic AMP
T1 construct: Fractions containing PDE III activity are pooled and dialyzed overnight; from tissue; host or cells: human platelets
Description: The Type III PDE is isolated from human platelets using a procedure similar to that previously described by Washer, R. E. et al., Biochem. Pharmacol., 35:787, 1986. Briefly, 1-2 units of platelets are suspended in an equal volume of buffer (20 mM Tris-HCl, pH 7.5, containing 2 mM magnesium acetate, 1 mM dithiothreitol, and 5 mM Na2EDTA). The proteinase inhibitor phenylmethyl-sulfonyl fluoride (PMSF) is also included in this buffer at a final concentration of 200 μM. The suspension is homogenized using a polytron and the homogenate centrifuged at 100,000×g for 60 minutes. This and all subsequent procedures are performed at 0-4° C. The supernatant is then filtered through four layers of gauze and applied to a DEAE-Trisacryl M column, previously equilibrated with buffer B (20 mM Tris-HCl, pH 7.5, containing 1 mM magnesium acetate, 1 mM dithiothreitol and 200 μM PMSF). After application of the sample, the column is washed with several bed volumes of buffer B, after which the different forms of PDE are eluted from the column using two successive linear NaCl gradients (0.05-0.15 M, 300 ml total; 0.15-0.40 M, 200 ml total). Five ml fractions are collected and assayed for cyclic AMP and cyclic GMP PDE activity. Fractions containing PDE III activity are pooled and dialyzed overnight against 4 L of buffer B. The dialyzed PDE III is then concentrated to 10% of the original volume, diluted to 50% with ethylene glycol monoethyl ether and stored at −20° C. PDE III can typically be retained for up to four weeks with little or no loss of activity.
(§1) Enzyme activity is assessed by measuring the hydrolysis of [^3H]-cyclic AMP, as described by Thompson, W. J. et al., Adv. Cyclic Nucleotide Res. 10:69, 1979. The cyclic AMP concentration used in this assay is 0.2 μM, which approximates to the Km value. Protein concentration is adjusted to ensure that no more than 15% of the available substrate is hydrolyzed during the incubation period.
(§2) All test compounds are dissolved in dimethyl sulfoxide (final concentration of 2.5%). This concentration of dimethyl sulfoxide inhibits enzyme activity by approximately 10%.

PDE IV = system: T2, PDE IV; test: Type IV PDE inhibition, hydrolysis of [3H]-cyclic AMP; assay type: biochemical, bovine; settings: Type IV PDE isolated from bovine tracheal smooth muscle; 0.2 μM cyclic AMP; read-out: PDE IV IC50
T2 construct: PDE IV IC50; other: Type IV PDE isolated from bovine tracheal smooth muscle; rolipram run in the
Text: The PDE IV inhibitory compounds of the present invention may be examined for their PDE IV inhibitory effects via the techniques set forth in the following examples, wherein the ability of the compounds to inhibit PDE IV isolated from bovine tracheal smooth muscle is set forth.
The Type IV PDE is isolated from bovine tracheal smooth muscle using a procedure similar to that previously described by Silver, P. J. et al., Eur. J. Pharmacol. 150:85,1988.(1). Briefly, smooth muscle from bovine trachea is minced and homogenized using a polytron in 10 volumes of an extraction buffer containing 10 mM Tris-acetate (pH 7.5), 2 mM magnesium chloride, 1 mM dithiothreitol and 2,000 units/ml of aprotinin. This and all subsequent procedures are performed at 0-4° C. The homogenate is sonicated and then centrifuged at 48,000×g for 30 minutes. The resulting supernatant is applied to a DEAE Trisacryl M column previously equilibrated with sodium acetate and dithiothreitol. After applications of the sample, the column is washed with sodium acetate/dithiothreitol, after whlich the different forms of PDE are eluted from the column using a linear Tris-HCl/NaCl gradient. Fractions containing Type IV PDE are collected, dialyzed and concentrated to 14% of the original volume. The concentrated fractions are diluted to 50% with ethylene glycol and stored at −20° C.
as §1, with “approximates” for “approximates to”
as §2

T1 sequence (Q14432 whole entry): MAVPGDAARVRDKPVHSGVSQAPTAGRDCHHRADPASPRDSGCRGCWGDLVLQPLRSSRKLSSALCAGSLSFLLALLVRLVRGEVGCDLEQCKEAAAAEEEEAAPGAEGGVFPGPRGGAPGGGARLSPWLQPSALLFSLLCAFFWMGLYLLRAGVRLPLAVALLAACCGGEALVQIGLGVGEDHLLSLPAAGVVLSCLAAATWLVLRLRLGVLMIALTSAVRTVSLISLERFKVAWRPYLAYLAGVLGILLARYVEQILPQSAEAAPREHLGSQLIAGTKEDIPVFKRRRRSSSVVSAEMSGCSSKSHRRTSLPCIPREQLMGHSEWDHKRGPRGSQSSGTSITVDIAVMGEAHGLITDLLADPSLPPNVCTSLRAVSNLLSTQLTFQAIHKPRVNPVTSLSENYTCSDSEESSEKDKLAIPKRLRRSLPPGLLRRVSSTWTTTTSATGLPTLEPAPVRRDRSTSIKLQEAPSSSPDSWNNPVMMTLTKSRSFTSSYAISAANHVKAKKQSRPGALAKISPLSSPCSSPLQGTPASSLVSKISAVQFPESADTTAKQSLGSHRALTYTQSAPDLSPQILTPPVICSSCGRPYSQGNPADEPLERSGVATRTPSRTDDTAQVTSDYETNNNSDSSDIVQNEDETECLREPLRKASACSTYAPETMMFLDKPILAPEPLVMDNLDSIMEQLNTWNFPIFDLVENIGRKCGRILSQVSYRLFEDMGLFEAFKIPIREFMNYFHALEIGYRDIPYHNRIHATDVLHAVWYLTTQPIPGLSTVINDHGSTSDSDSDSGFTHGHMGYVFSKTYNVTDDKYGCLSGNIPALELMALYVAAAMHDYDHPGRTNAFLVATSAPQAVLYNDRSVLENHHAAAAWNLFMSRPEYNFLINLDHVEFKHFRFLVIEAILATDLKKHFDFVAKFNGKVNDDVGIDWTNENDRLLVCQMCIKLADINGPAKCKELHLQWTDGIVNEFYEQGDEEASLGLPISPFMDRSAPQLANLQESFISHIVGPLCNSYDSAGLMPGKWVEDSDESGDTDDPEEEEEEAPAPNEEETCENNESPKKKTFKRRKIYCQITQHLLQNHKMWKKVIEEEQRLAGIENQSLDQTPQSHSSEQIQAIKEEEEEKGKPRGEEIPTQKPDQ

Compound | IC50 (PDE III) | IC50 (PDE IV) | inhibition at 10 µM (PDE III; at 10 μM)
2-(3-Cyclopentyloxy-4-methoxybenzyl)-5-chloro-7-(2-hydroxyethyl)benzoxazole Carbamate [Example 28] | 36.8 µM | 0.7 µM | –
2-(3-cyclopentyloxy-4-methoxybenzyl)-5-chlorobenzoxazole-7-ethanal Oxime [Example 31] | > 300 µM | 1.66 µM | –
C=CCc1cc(Cl)cc2nc(Cc3ccc(OC)c(OC4CCCC4)c3)oc12 [Example 1, 7-Allyl-5-chloro-2-(3-cyclopentyloxy-4-methoxybenzyl)-benzoxazole] | > 300 µM | – | 22%
CC(C)(C)c1cc(Cc2nc3cc(Cl)cc(C#Cc4ccccn4)c3o2)cc(C(C)(C)C)c1O [Example 2, 5-Chloro-2-(3,5-di-t-butyl-4-hydroxy-benzyl)-7(2-(2-pyridyl)-ethynyl)-benzoxazole] | – | 0.01 µM | –
CC(C)(C)c1cc(Cc2nc3cc(Cl)cc(C#Cc4nccs4)c3o2)cc(C(C)(C)C)c1O [Example 3, 5-Chloro-2-(3,5-di-t-butyl-4-hydroxy-benzyl)-7-(2-(2-thiazolyl)-ethynyl)-benzoxazole] | – | 0.01 µM | –
COc1ccc(Cc2nc3cc(Cl)cc(Br)c3o2)cc1OC1CCCC1 [Example 4, 7-Bromo-5-chloro-2-(3-cyclopentyloxy-4-methoxybenzyl)-benzoxazole] | 7.4 µM | 25.1 µM | –
COc1ccc(Cc2nc3cccc([N+](=O)[O-])c3o2)cc1OC1CCCC1 [Example 6, 2-(3-Cyclopentyloxy-4-methoxybenzyl)-7-nitro-benzoxazole] | 0.6 µM | 1.6 µM | –
COc1ccc(Cc2nc3c(O)cccc3o2)cc1OC1CCCC1 [Example 7, 2-(3-Cyclopentyloxy-4-methoxybenzyl)-4-hydroxy-benzoxazole] | 124 µM | 0.5 µM | –
COc1ccc(Cc2nc3c(OC(C)=O)cccc3o2)cc1OC1CCCC1 [Example 8, 4-Acetoxy-2-(3-cyclopentyloxy-4-methoxybenzyl)-benzoxazole] | 158 µM | 0.75 µM | –
COc1ccc(Cc2nc3c(OCc4ccccn4)cccc3o2)cc1OC1CCCC1 [Example 10, 2-((3-Cyclopentyloxy-4-methoxy)benzyl)-4-(2-pyridylmethoxy)-benzoxazole Hydrochloride] | > 300 µM | 0.53 µM | –
COc1ccc(Cc2nc3cccc(N)c3o2)cc1OC1CCCC1 [Example 13, 7-Amino-2-((3-Cyclopentyloxy-4-methoxy)benzyl)-benzoxazole Hydrochloride] | 253 µM | 13.7 µM | –
COc1ccc(Cc2nc3c(OC)cccc3o2)cc1OC1CCCC1 [Example 14, 2-((3-Cyclopentyloxy-4-methoxy)benzyl)-4-methoxy-benzoxazole] | 49.2 µM | 1.99 µM | –
COc1ccc(Cc2nc3cccc(NC(=O)c4cccnc4)c3o2)cc1OC1CCCC1 [Example 15, 2-((3-Cyclopentyloxy-4-methoxy)benzyl)-7-(nicotinoyl-amino)-benzoxazole] | 177 µM | 4.79 µM | –
COc1ccc(Cc2nc3cccc(NC(=O)c4ccncc4)c3o2)cc1OC1CCCC1 [Example 16, 2-((3-Cyclopentyloxy-4-methoxy)benzyl)-7-(isonicotinoyl-amino)-benzoxazole Hydrochloride] | 43.9 µM | 6.03 µM | –
COc1ccc(Cc2nc3cc(Cl)cc(CCO)c3o2)cc1OC1CCCC1 [Example 27, 2-(3-Cyclopentyloxy-4-methoxybenzyl)-5-chloro-7-(2-hydroxyethyl)Benzoxazole] | 38.1 µM | 0.65 µM | –

Other lines, results leading:

IC50 (PDE III) | IC50 (PDE IV) | inhibition at 10 µM (PDE III; at 10 μM) | Compound
121 µM | 0.76 µM | – | COc1ccc(Cc2nc3cccc(NC(=O)c4ccccn4)c3o2)cc1OC1CCCC1 [Example 17, 2-((3-Cyclopentyloxy-4-methoxy)benzyl)-7-(2-pyridine-carbonylamino)-benzoxazole]
> 300 µM | 3.43 µM | – | COc1ccc(Cc2nc3cccc(NC(=O)OCc4ccccc4)c3o2)cc1OC1CCCC1 [Example 18, 7-((Benzyloxycarbonyl)amino)-2-((3-Cyclopentyloxy-4-methoxy)-benzyl)-benzoxazole]
2.8 µM | 0.47 µM | – | COc1ccc(Cc2nc3cccc(Br)c3o2)cc1OC1CCCC1 [Example 19, 2-((3-Cyclopentyloxy-4-methoxy)benzyl)-7-bromo-benzoxazole]
34.3 µM | 3.03 µM | – | CC(C)c1cc(Cc2nc3c(O)cccc3o2)cc(C(C)C)c1O [Example 20, 2-((3,5-Di-isopropyl-4-hydroxy)benzyl)-4-hydroxy-benzoxazole]
105 µM | 24.5 µM | – | Cc1cc(Cc2nc3c(O)cccc3o2)cc(C)c1O [Example 21, 2-((3,5-Dimethyl-4-hydroxy)benzyl)-4-hydroxybenzoxazole]
– | 0.07 µM | – | CC(C)(C)c1cc(Cc2nc3cccc(C#Cc4ccccn4)c3o2)cc(C(C)(C)C)c1O [Example 22]
152 µM | 0.26 µM | – | CC(C)c1cc(Cc2nc3cccc(C#Cc4ccccn4)c3o2)cc(C(C)C)c1O [Example 23]
100 µM | 11.2 µM | – | COc1ccc(Cc2nc3cc(Cl)cc(CC(=O)O)c3o2)cc1OC1CCCC1 [Example 29, 2-(3-Cyclopentyloxy-4-methoxybenzyl)-5-chlorobenzoxazole-7-acetic Acid]
128 µM | 2.92 µM | – | COc1ccc(Cc2nc3cc(Cl)cc(CC(N)=O)c3o2)cc1OC1CCCC1 [Example 30, 2-(3-Cyclopentyloxy-4-methoxybenzyl)-5-chlorobenzoxazole-7-acetamide]
> 300 µM | 32.5 µM | – | Nc1cccc2nc(-c3cccc(Cl)c3)oc12 [Example 32]
173 µM | 9.1 µM | – | Clc1cccc(-c2nc3cccc(NCc4ccccn4)c3o2)c1 [Example 33, 2-(3-chlorophenyl)-7-(2-pyridylmethylamino)benzoxazole]
33.2 µM | 1 µM | – | COc1ccc(Cc2nc3cccc(NCc4cccnc4)c3o2)cc1OC1CCCC1 [Example 34, 2-(3-Cyclopentyloxy-4-methoxybenzyl)-7-(3-pyridylmethylamino)Benzoxazole]
> 300 µM | 19.3 µM | – | COc1ccc(Cc2nc3cccc(NCc4ncc[nH]4)c3o2)cc1OC1CCCC1 [Example 35, 2-(3-Cyclopentyloxy-4-methoxybenzyl)-7-(2-imidazolylmethylamino)Benzoxazole]
> 300 µM | 15.8 µM | – | COc1ccc(CNc2cccc3nc(-c4cccc(Cl)c4)oc23)cc1OC1CCCC1 [Example 36, 2-(3-Chlorophenyl)-7-(3-cyclopentyloxy-4-methoxy-benzylamino)Benzoxazole]
77 µM | 39.1 µM | – | OCCCc1cc(Cl)cc2nc(Cc3ccccc3)oc12 [Example 37, 2-Benzyl-5-chloro-7-(3-hydroxy-1-propyl)Benzoxazole]
107 µM | 5.4 µM | – | C=CCc1cc(Cl)cc2nc(Cc3ccccc3Cl)oc12 [Example 38, 2-(2-Chlorobenzyl)-5-chloro-7-allylbenzoxazole]
53.9 µM | 15.2 µM | – | COCCCc1cc(Cl)cc2nc(Cc3ccccc3Cl)oc12 [Example 39, 2-(2-Chlorobenzyl)-5-chloro-7-(3-methoxy-1-propyl)Benzoxazole]
> 300 µM | 0.92 µM | – | CCCc1cc(Cl)cc2nc(Cc3ccc(OC)c(OC4CCCC4)c3)oc12 [Example 40, 2-(3-Cyclopentyloxy-4-methoxybenzyl)-5-chloro-7-propylbenzoxazole]
